Earlier results, collected in patent US20140294923A1, “ACTH FOR TREATMENT OF MIGRAINE HEADACHE” (priority 2013, published 2014).

Tested on: CGRP release
Conditions: experimental models; Ulrich-Lai 2001

For “ACTH (SYSMEHFRWGKPVGKKRRPVKVYPDGAEDQLAEAFPLEF)”, the “release of CGRP” value is given as “inhibit the release of CGRP”.
